Patent publication US10526276B2, “Dream neuronal calcium sensor-modulating compounds, and therapeutic uses thereof” (CONSEJO SUPERIOR DE INVESTIGACIONES CIENTÍFICAS, priority 2014, dated 2020)

Legend:
Kv4.3 channels = biological target: T1, Kv4.3 channels (Homo sapiens, UniProt Q9UK17); experiment: Patch-clamp in CHO cells transiently transfected with Kv4.3 only; type: cell-based; conditions: 100 nM, FIG. 1B
T1 construct: expressed in transfected cells; host or cells: CHO cells, transient transfection
T1 sequence (Q9UK17 1-655): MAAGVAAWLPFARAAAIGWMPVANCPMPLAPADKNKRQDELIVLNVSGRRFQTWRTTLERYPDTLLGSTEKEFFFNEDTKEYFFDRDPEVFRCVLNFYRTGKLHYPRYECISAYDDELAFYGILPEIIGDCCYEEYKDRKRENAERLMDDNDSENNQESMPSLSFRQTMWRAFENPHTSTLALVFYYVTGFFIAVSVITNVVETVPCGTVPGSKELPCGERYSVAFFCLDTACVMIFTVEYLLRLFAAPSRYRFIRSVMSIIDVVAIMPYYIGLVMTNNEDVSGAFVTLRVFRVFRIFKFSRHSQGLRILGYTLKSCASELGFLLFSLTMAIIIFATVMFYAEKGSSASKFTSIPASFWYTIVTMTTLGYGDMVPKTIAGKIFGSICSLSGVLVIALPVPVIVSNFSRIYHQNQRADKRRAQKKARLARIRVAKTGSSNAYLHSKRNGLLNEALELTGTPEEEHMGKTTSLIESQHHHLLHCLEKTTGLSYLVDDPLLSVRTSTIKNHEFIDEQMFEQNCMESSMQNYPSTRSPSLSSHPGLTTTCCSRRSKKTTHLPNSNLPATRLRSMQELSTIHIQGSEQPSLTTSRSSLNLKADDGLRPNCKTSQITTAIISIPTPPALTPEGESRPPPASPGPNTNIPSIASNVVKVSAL
From the text: (§1) The new compounds synthesised according to this invention have been evaluated in vitro in voltage-binding assays in CHO cells transiently transfected with cDNA encoding Kv4.3 only or Kv4.3 in the presence of DREAM (Kv4.3+DREAM) using the patch-clamp technique. […] For some of the compounds evaluated, this effect is selective and is only observed in the presence of the DREAM channel modulator.

Kv4.3+DREAM channels = biological target: T2, Kv4.3+DREAM channels (Homo sapiens, UniProt Q9UK17+Q9Y2W7); experiment: Patch-clamp in CHO cells transiently transfected with Kv4.3 in the presence of DREAM; type: cell-based; conditions: 100 nM; for inhibitory effect of the Kv4.3+DREAM current (% decrease of the amount of charge passing through the membrane): CHO cells, FIG. 1B
T2 construct: expressed in transfected cells; host or cells: CHO cells, transient transfection
T2 sequence (Q9Y2W7 1-256): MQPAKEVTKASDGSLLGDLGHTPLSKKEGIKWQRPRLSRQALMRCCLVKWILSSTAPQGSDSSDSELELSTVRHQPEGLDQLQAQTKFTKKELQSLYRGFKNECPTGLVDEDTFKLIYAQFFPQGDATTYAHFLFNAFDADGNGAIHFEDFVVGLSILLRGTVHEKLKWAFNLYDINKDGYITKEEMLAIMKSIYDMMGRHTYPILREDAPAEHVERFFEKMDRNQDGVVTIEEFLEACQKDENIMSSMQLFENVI
T2 sequence (Q9UK17 1-655): T1 sequence (Q9UK17 1-655)
From the text: as §1

[1] = system: STHdh^Q111/Q111 cells infected with lentivirus expressing the complete human DREAM protein (Q111DR); experiment: Neuroprotection against H2O2-mediated necrosis (LDH release) in Q111DR cells; type: cell-based, mouse; conditions: compound 100 nM; H2O2 0.66 mM; FIG. 2
Method: FIG. 2. […] RP: Repaniglida.
(§2) In an immortalized cell line of mouse striatum infected with lentivirus STHdh^Q111/Q111 expressing the complete human DREAM protein (Q111DR), the neuroprotective effect of the compounds was tested against necrosis mediated by H2O2 and apoptosis mediated by staurosporine.

[2] = system: STHdh^Q111/Q111 cells infected with lentivirus expressing the complete human DREAM protein (Q111DR); experiment: Neuroprotection against staurosporine-mediated apoptosis (caspase-3 activation) in Q111DR cells; type: cell-based, mouse; conditions: compound 100 nM, 1 h pre-incubation; staurosporine 1 μM for 5 h; compared with repaglinide (RP); FIG. 3
Method: FIG. 3. Analysis of the neuroprotective effect of compounds 9, 16, 22, 23 and 62 (100 nM) against the activation of caspase-3 mediated by staurosporine in ^Q111/Q111 cells infected with lentivirus expressing the complete human DREAM protein. The caspase-3 activity was measured after 1 h of pre-incubation of the compounds (100 nM) and subsequent exposure for 5 h of staurosporine at 1 μM. RP: Repaniglida.
as §2

Q: How did the “inhibitory effect of the Kv4.3 current in the absence of DREAM (% decrease of the amount of charge passing through the membrane)” value (Kv4.3 channels) turn out when `CCCCc1ccc(-c2ccc(C(=O)O)c(NC(=O)Cc3ccc(Cl)c(Cl)c3)c2)cc1` [Compound 35, 2-[2-(3,4-dichlorophenyl)acetylamino]-4-(4′-n-butylphenyl)benzoic acid] was run?
A: only inhibit the Kv4.3 current in the presence of DREAM

Q: What about the “inhibitory effect of the Kv4.3+DREAM current (% decrease of the amount of charge passing through the membrane)” value (Kv4.3+DREAM channels) of the same compound?
A: only inhibit the Kv4.3 current in the presence of DREAM

Q: Which results are given for `O=C(Cc1ccc(Cl)c(Cl)c1)Nc1ccc(-c2ccccc2)cc1C(=O)O` [Compound 42, 2-[2-(3,4-dichlorophenyl)acetylamino]-5-phenylbenzoic acid]?
A: inhibitory effect of the Kv4.3 current in the absence of DREAM (% decrease of the amount of charge passing through the membrane) (Kv4.3 channels): only inhibit the Kv4.3 current in the presence of DREAM; inhibitory effect of the Kv4.3+DREAM current (% decrease of the amount of charge passing through the membrane) (Kv4.3+DREAM channels): only inhibit the Kv4.3 current in the presence of DREAM

Q: `COC(=O)[C@@H](Cc1cn(C(c2ccccc2)(c2ccccc2)c2ccccc2)cn1)NC(=O)Cc1ccc(Cl)c(Cl)c1` [Compound 62, (2R)-2-[2-(3,4-dichlorophenyl)acetylamino]-3-(1-trityl-1H-imidazol-4-yl)methyl propanoate] was tested. Which “inhibitory effect of the Kv4.3 current in the absence of DREAM (% decrease of the amount of charge passing through the membrane)” value (Kv4.3 channels) did it give?
A: similarly inhibits the current generated by the Kv4.3 channels

Q: What about the “inhibitory effect of the Kv4.3+DREAM current (% decrease of the amount of charge passing through the membrane)” value (Kv4.3+DREAM channels) of the same compound?
A: similarly inhibits the current generated by the Kv4.3 channels to that of the Kv4.3 channels in the presence of DREAM

Q: And the “selectivity of Kv4.3 current inhibition for the presence of DREAM” value (Kv4.3+DREAM channels; Kv4.3+DREAM versus Kv4.3 only)?
A: has no selectivity

Q: What about the “release of LDH (lactate dehydrogenase) mediated by H2O2, neuroprotective effect” value [1] of the same compound?
A: lowest LDH release

Q: What about the “activation of caspase-3 mediated by staurosporine, neuroprotective effect” value [2] of the same compound?
A: lowest activation of caspase-3
